Results as given in patent US6706740B2, “Fungicidal heterocyclic aromatic amides and their compositions, methods of use and preparation” (Dow AgroSciences LLC, priority 1999, dated 2004).
Read-outs that look alike come from different tables or passages of the source.

What was measured:
[1] = system: Leptosphaeria nodorum—LEPTNO; test: Glume Blotch of Wheat, in vivo whole plant, 24 Hour Protectant; conditions: for pest or weed control at 100 ppm: Leptosphaeria, read-out: LEPTNO in vivo 1 Day Protectant
[2] = system: Phytophthora infestans—PHYTIN; test: whole plant or invertebrate; assay type: in vivo; conditions: Phytophthora, in Solanum lycopersicum, 24 h, read-out: PHYTIN in vivo 1 Day Protectant
[3] = system: Phytophthora infestans (PHYTIN); test: microbe, parasite or virus in culture; assay type: cell-based; conditions: Phytophthora infestans, read-out: PHYTIN in vitro Growth Inhibition
[4] = system: Magnaporthe grisea (Pyricularia oryzae—PYRIOR); test: microbe, parasite or virus in culture; assay type: cell-based; conditions: Pyricularia oryzae, read-out: PYRIOR in vitro Growth Inhibition
[5] = system: Erysiphe graminis—ERYSGT; test: Powdery Mildew of Wheat, in vivo whole plant, 24 Hour Protectant; conditions: for pest or weed control at 100 ppm: Erysiphe, read-out: ERYSGT in vivo 1 Day Protectant
[6] = system: Puccinia recondita—PUCCRT; test: Brown Rust of Wheat, in vivo whole plant, 24 Hour Protectant
[7] = system: Rhizoctonia solani (RHIZSO); test: microbe, parasite or virus in culture; assay type: cell-based; conditions: Rhizoctonia solani, read-out: RHIZSO in vitro Growth Inhibition
[8] = system: Septoria tritici—SEPTTR; test: Leaf Blotch of Wheat, in vivo whole plant, 24 Hour Protectant
[9] = system: Stagonospora nodorum (Leptosphaeria nodorum—LEPTNO); test: In vitro fungal growth inhibition, Stagonospora nodorum (LEPTNO); assay type: cell-based; conditions: Leptosphaeria, read-out: LEPTNO in vitro Growth Inhibition
[10] = system: Ustilago maydis (USTIMA); test: microbe, parasite or virus in culture; assay type: cell-based; conditions: Mycosarcoma maydis, read-out: USTIMA in vitro Growth Inhibition
[11] = system: Mycosphaerella graminicola (Septoria tritici—SEPTTR); test: In vitro fungal growth inhibition, Mycosphaerella graminicola (SEPTTR); assay type: cell-based; conditions: Zymoseptoria tritici, read-out: SEPTTR in vitro Growth Inhibition
[12] = 100 ppm spray, wheat, 24 hour protectant, % control of fungal infection vs untreated plants

| Compound | LEPTNO in vivo 1 Day Protectant [1, 12] | pest or weed control at 100 ppm [2] [%] | inhibition at 25 ppm [3] [%] | inhibition at 25 ppm [4] [%] | pest or weed control at 100 ppm [5, 12] [%] | PUCCRT in vivo 1 Day Protectant [6, 12] | inhibition at 25 ppm [7] [%] | SEPTTR in vivo 1 Day Protectant [8, 12] | inhibition at 25 ppm ([9]; 25 ppm in growth medium) [%] | inhibition at 25 ppm [10] [%] | inhibition at 25 ppm ([11]; 25 ppm in growth medium) [%] | also measured |
| --- | --- | --- | --- | --- | --- | --- | --- | --- | --- | --- | --- | --- |
| COc1ccc(C(=O)Oc2c(OC)ccnc2C(=O)N[C@H]2COC(=O)[C@H](Cc3ccccc3)[C@@H](OC(=O)C(C)C)[C@H](C)OC2=O)cc1 [Compound 634] | + + | < 25 | < 80 | < 80 | < 25 | + + | < 80 | + + | < 80 | < 80 | < 80 |  |
| COc1ccnc(C(=O)N[C@H]2COC(=O)[C@H](Cc3ccccc3)[C@@H](OC(=O)C(C)C)[C@H](C)OC2=O)c1OC(=O)c1ccc(F)c(F)c1 [Compound 639] | + + | < 25 | < 80 | < 80 | < 25 | + + | < 80 | + + | > 80 | < 80 | < 80 |  |
| COc1ccnc(C(=O)N[C@H]2COC(=O)[C@H](Cc3ccccc3)[C@@H](OC(=O)C(C)C)[C@H](C)OC2=O)c1OC(=O)Cc1ccccc1 [Compound 648] |  | < 25 | < 80 | > 80 |  |  | < 80 |  |  | < 80 |  | LEPTNO in vivo 1 Day Protectant ([1]; in vivo): + +; ERYSGT in vivo 1 Day Protectant ([5]; in vivo): + +; PUCCRT in vivo 1 Day Protectant ([6]; in vivo): + +; SEPTTR in vivo 1 Day Protectant ([8]; in vivo): + +; inhibition at 25 ppm [9]: < 80%; inhibition at 25 ppm [11]: < 80% |
| COc1ccnc(C(=O)N[C@H]2COC(=O)[C@H](Cc3ccccc3)[C@@H](OC(=O)C(C)C)[C@H](C)OC2=O)c1OC(=O)CCc1ccccc1 [Compound 650] |  | < 25 | < 80 | > 80 |  |  | < 80 |  |  | < 80 |  | LEPTNO in vivo 1 Day Protectant ([1]; in vivo): + +; pest or weed control at 100 ppm ([5]; 24 h): < 25%; PUCCRT in vivo 1 Day Protectant ([6]; in vivo): + +; SEPTTR in vivo 1 Day Protectant ([8]; in vivo): + +; inhibition at 25 ppm [9]: > 80%; inhibition at 25 ppm [11]: < 80% |
| COCC(=O)Oc1c(OC)ccnc1C(=O)N[C@H]1COC(=O)[C@H](Cc2ccccc2)[C@@H](OC(=O)C(C)C)[C@H](C)OC1=O [Compound 653] | + + | < 25 | < 80 | < 80 |  | + + | < 80 | + + | > 80 | < 80 | > 80 | ERYSGT in vivo 1 Day Protectant [5, 12]: + + |
| COc1ccnc(C(=O)N[C@H]2COC(=O)[C@H](Cc3ccccc3)[C@@H](OC(=O)C(C)C)[C@H](C)OC2=O)c1OC(=O)COCc1ccccc1 [Compound 656] | + + | < 25 | < 80 | > 80 | < 25 | + + | < 80 | + + | > 80 | < 80 | < 80 |  |
| COc1ccnc(C(=O)N[C@H]2COC(=O)[C@H](Cc3ccccc3)[C@@H](OC(=O)C(C)C)[C@H](C)OC2=O)c1OC(=O)c1cnc(Cl)c(Cl)c1 [Compound 670] | + + | < 25 | > 80 | < 80 | < 25 | + + | < 80 | + + | > 80 | < 80 | < 80 |  |
| COc1ccnc(C(=O)N[C@H]2COC(=O)[C@H](Cc3ccccc3)[C@@H](OC(=O)C(C)C)[C@H](C)OC2=O)c1OC(=O)c1ccco1 [Compound 673] | + + | < 25 | < 80 | < 80 | < 25 | + + | < 80 | + + | < 80 | < 80 | < 80 |  |
| COc1ccnc(C(=O)N[C@H]2COC(=O)[C@H](Cc3ccccc3)[C@@H](OC(=O)C(C)C)[C@H](C)OC2=O)c1OC(=O)c1cccs1 [Compound 674] |  | < 25 | < 80 | < 80 | < 25 | + + | < 80 | + + | > 80 | < 80 | > 80 | pest or weed control at 100 ppm [1, 12]: 25 to 74% |
| CCOC(=O)Oc1c(OC)ccnc1C(=O)N[C@H]1COC(=O)[C@H](Cc2ccccc2)[C@@H](OC(=O)C(C)C)[C@H](C)OC1=O [Compound 679] | + + | < 25 | < 80 | > 80 |  | + + | > 80 | + + | < 80 | < 80 | < 80 | ERYSGT in vivo 1 Day Protectant [5, 12]: + + |
| COc1ccnc(C(=O)N[C@H]2COC(=O)[C@H](Cc3ccccc3)[C@@H](OC(=O)C(C)C)[C@H](C)OC2=O)c1OC(=O)O[C@@H]1C[C@H](C)CC[C@H]1C(C)C [Compound 690] |  | < 25 | < 80 | < 80 | < 25 |  | < 80 | + + | < 80 | < 80 | < 80 | pest or weed control at 100 ppm [1, 12]: 25 to 74%; pest or weed control at 100 ppm ([6]; Puccinia, 100 ppm spray, wheat, 24 hour protectant, % control of fungal infection vs untreated plants, read-out: PUCCRT in vivo 1 Day Protectant): 25 to 74% |
| COc1ccnc(C(=O)N[C@H]2COC(=O)[C@H](Cc3ccccc3)[C@@H](OC(=O)C(C)C)[C@H](C)OC2=O)c1OC(=O)OCCBr [Compound 692] | + + | < 25 | < 80 | > 80 | < 25 | + + | < 80 | + + | > 80 | < 80 | > 80 |  |
| CCC(C)C(=O)O[C@H]1[C@H](C)OC(=O)[C@@H](NC(=O)c2nccc(OC)c2OC(C)=O)COC(=O)[C@@H]1Cc1ccccc1 (some centres unmarked) [Compound 701] | + + | < 25 | < 80 | < 80 |  | + + | < 80 | + + | > 80 | < 80 | > 80 | ERYSGT in vivo 1 Day Protectant [5, 12]: + + |
| COc1ccnc(C(=O)N[C@H]2COC(=O)[C@H](Cc3ccccc3)[C@@H](OC(=O)CC(C)C)[C@H](C)OC2=O)c1OC(C)=O [Compound 702] | + + | < 25 | < 80 | < 80 | < 25 | + + | < 80 | + + | > 80 | < 80 | < 80 |  |
| COc1ccnc(C(=O)Nc2cccc(Sc3ccc(C(F)(F)F)cc3)c2)c1OC(C)=O [Compound 710] | + + | < 25 | < 80 | > 80 | < 25 | + + | < 80 | + + | > 80 | < 80 | > 80 |  |
| COCCC(=O)Oc1c(OC)ccnc1C(=O)Nc1ccc(Sc2cccc(C(F)(F)F)c2)cc1 [Compound 712] |  | < 25 | < 80 | > 80 |  | + + | < 80 | + + | > 80 | < 80 | > 80 | pest or weed control at 100 ppm [1, 12]: 25 to 74%; ERYSGT in vivo 1 Day Protectant [5, 12]: + + |
